Source: ChEMBL document CHEMBL4038351, “Structure-Guided Development of Covalent and Mutant-Selective Pyrazolopyrimidines to Target T790M Drug Resistance in Epidermal Growth Factor Receptor” (J Med Chem, 2017)
Values after ≈ are worked out from the molar mass of the structure shown. Active and inactive are the calls of the source. No cut-off for these calls is given here.

How the values were obtained:
HCC827 [1] = assay: cells; assay type: functional, cell-based; details: Homo sapiens
Description: Antiproliferative activity against human HCC827 cells harboring EGFR-delE746_A750 mutant incubated for 96 hrs measured on day 5 by CellTiterGlo assay

A549 [2] = assay: cells; assay type: ADME, cell-based; details: Homo sapiens
Description: Antiproliferative activity against human A549 cells harboring KRAS-G12S mutant incubated for 96 hrs measured on day 5 by CellTiterGlo assay

NCI-H1975 [3] = assay: cells; assay type: functional, cell-based; details: Homo sapiens
A-431 [4] = assay: cells; assay type: ADME, cell-based; details: Homo sapiens
Description: Antiproliferative activity against human A431 cells expressing wild type EGFR incubated for 96 hrs measured on day 5 by CellTiterGlo assay

A549 [5] = assay: Antiproliferative activity against human A549 cells harboring KRAS-G12S mutant at 30 uM incubated for 96 hrs measured on day 5 by CellTiterGlo assay; assay type: cell-based; details: a549, 96 h
[6] = target: Epidermal growth factor receptor (Homo sapiens, UniProt P00533)
[7] = target: Epidermal growth factor receptor (Homo sapiens, UniProt P00533, L858R/T790M)
[8] = target: Epidermal growth factor receptor (Homo sapiens, UniProt P00533, L858R)
A-431 [9] = assay: Antiproliferative activity against human A431 cells expressing wild type EGFR at 30 uM incubated for 96 hrs measured on day 5 by CellTiterGlo assay; assay type: cell-based; details: a-431, 96 h
NCI-H1975 [10] = assay: Antiproliferative activity against human NCI-H1975 cells harboring EGFR-L858R/T790M double mutant at 30 uM incubated for 96 hrs measured on day 5 by CellTiterGlo assay; assay type: functional, cell-based
[11] = Permeability of the compound at 500 uM incubated for 20 hrs by PAMPA; assay type: physicochemical
[12] = Metabolic stability in human plasma at 5 uM incubated for 1 hr by LC-MS method; assay type: ADME, cell-free; details: read-out: Stability
[13] = Kinetic solubility in Hepes buffer at 500 uM at pH 7.4 after 90 mins; assay type: physicochemical; details: read-out: Kinetic_solubility
[14] = Metabolic stability in mouse plasma at 5 uM incubated for 1 hr by LC-MS method; assay type: ADME, cell-free; details: read-out: Stability
[15] = Fraction unbound in mouse 100% plasma at 5 uM incubated for 6 hrs by LC-MS method; assay type: ADME, cell-free
in vitro [16] = details: human, liver microsomes
in vitro [17] = details: mouse, liver microsomes
[18] = Apparent permeability across basolateral to apical side in human Caco2 cells at 5 uM incubated for 2 hrs; assay type: ADME, cell-based, Caco-2; details: for Papp B→A at 2 h, 5 µM: Caco-2
[19] = Apparent permeability across apical to basolateral side in human Caco2 cells at 5 uM incubated for 2 hrs; assay type: ADME, cell-based, Caco-2; details: for Papp A→B at 2 h, 5 µM: Caco-2
HCC827 [20] = assay: Antiproliferative activity against human HCC827 cells harboring EGFR-delE746_A750 mutant at 30 uM incubated for 96 hrs measured on day 5 by CellTiterGlo assay; assay type: functional, cell-based
[21] = tested on: Epidermal growth factor receptor (Homo sapiens), P00533 [L858R,T790M]; assay: Covalent binding affinity to human recombinant GST-tagged EGFR L858R/T790M double mutant expressed in baculovirus expression system by mass spectrometry

SMILES | EC50 (HCC827 [1]) | EC50 (A549 [2]) | EC50 (NCI-H1975 [3]) | EC50 (A-431 [4]) | Activity (A549 [5]) | IC50 [6] | IC50 [7] | IC50 [8] | other results
CN(C)C/C=C/C(=O)Nc1cc2c(Nc3ccc(F)c(Cl)c3)ncnc2cc1O[C@H]1CCOC1 [AFATINIB] | < 14 nM | 1490 nM | 600 nM | 200 nM | – | – | – | – | –
C=CC(=O)N1CCC[C@@H](n2nc(-c3ccc(O)cc3)c3c(N)ncnc32)C1 | 70 nM | 20000 nM | 1840 nM | 4170 nM | – | – | – | – | –
C=CC(=O)N1CCC[C@@H](n2nc(C3CC3)c3c(N)ncnc32)C1 | 310 nM | – | 5830 nM | 28100 nM | Non-Toxic | 700 nM | 220 nM | 110 nM | –
CCC(=O)N1CCC[C@@H](n2nc(-c3cccc(F)c3)c3c(N)ncnc32)C1 | 22300 nM | – | – | – | Non-Toxic | > 10000 nM | > 10000 nM | 3400 nM | Activity (A-431 [9]): Non-Toxic; Activity (NCI-H1975 [10]): inactive
C=CC(=O)Nc1cccc(Oc2nc(Nc3ccc(N4CCN(C)CC4)cc3OC)ncc2Cl)c1 | 20 nM | 3990 nM | 90 nM | – | – | – | – | – | –
C=CC(=O)N1CCC[C@@H](n2nc(-c3cnc4[nH]ccc4c3)c3c(N)ncnc32)C1 | < 14 nM | 3450 nM | 280 nM | 1390 nM | – | 10 nM | 3 nM | – | permeability [11]: 27%; remaining at 1 h, 5 µM [12]: 98%; solubility kinetic at 1.5 h, 500 µM [13]: 457 µM (≈ 178 µg/mL); remaining at 1 h, 5 µM [14]: 96%; fraction unbound at 6 h, 5 µM [15]: 0.37; microsomal CLint at 50 min, 3 µM (in vitro [16]): 108 µL/min/mg; microsomal CLint at 50 min, 3 µM (in vitro [17]): 495 µL/min/mg
C=CC(=O)N1CCC[C@@H](n2ncc3c(N)ncnc32)C1 | 9900 nM | – | – | – | Non-Toxic | 6900 nM | 1600 nM | 2500 nM | Activity (A-431 [9]): Non-Toxic; Activity (NCI-H1975 [10]): inactive
C=CC(=O)Nc1cc(Nc2nccc(-c3cn(C)c4ccccc34)n2)c(OC)cc1N(C)CCN(C)C [OSIMERTINIB] | […] | […] | […] | – | – | – | – | – | permeability [11]: 112%; remaining at 1 h, 5 µM [12]: […]; solubility kinetic at 1.5 h, 500 µM [13]: 265 µM (≈ 132 µg/mL); remaining at 1 h, 5 µM [14]: […]; fraction unbound at 6 h, 5 µM [15]: 0.03; microsomal CLint at 50 min, 3 µM (in vitro [16]): 4.1 µL/min/mg; microsomal CLint at 50 min, 3 µM (in vitro [17]): […]; Papp B→A at 2 h, 5 µM [18]: […]; Papp A→B at 2 h, 5 µM [19]: […]
C=CC(=O)N1CCC[C@@H](n2nc(-c3ccc(Oc4ccccc4)cc3)c3c(N)ncnc32)C1 [IBRUTINIB] | 450 nM | – | 640 nM | 2380 nM | Non-Toxic | – | – | – | permeability [11]: 38%; remaining at 1 h, 5 µM [12]: 80%; solubility kinetic at 1.5 h, 500 µM [13]: 57 µM (≈ 25.1 µg/mL); remaining at 1 h, 5 µM [14]: 96%; fraction unbound at 6 h, 5 µM [15]: 0.01; Papp ([18]; caco-2, 2 h, 5 µM): 0.9 ×10⁻⁸ cm/s; Papp ([19]; caco-2, 2 h, 5 µM): 40 ×10⁻⁸ cm/s
C=CC(=O)N1CCC[C@@H](n2nc(-c3ccc(C(F)(F)F)cc3)c3c(N)ncnc32)C1 | 160 nM | – | 1380 nM | 8870 nM | Non-Toxic | 60 nM | 270 nM | 60 nM | –
CN(C)C/C=C/C(=O)N1CCC[C@@H](n2nc(-c3ccccc3)c3c(N)ncnc32)C1 | 1190 nM | – | 29900 nM | 29800 nM | Non-Toxic | 3000 nM | 6600 nM | 220 nM | –
C=CC(=O)N1CCC[C@@H](n2nc(C#CCC3CCCC3)c3c(N)ncnc32)C1 | 3150 nM | 19900 nM | 6930 nM | 8770 nM | – | 750 nM | 920 nM | 120 nM | –
CCC(=O)N1CCC[C@@H](n2nc(-c3ccc(C(F)(F)F)cc3)c3c(N)ncnc32)C1 | 23600 nM | – | – | – | Non-Toxic | 6500 nM | > 10000 nM | 5900 nM | Activity (A-431 [9]): Non-Toxic; Activity (NCI-H1975 [10]): inactive
CCC(=O)N1CCC[C@@H](n2nc(-c3ccc(F)cc3)c3c(N)ncnc32)C1 | 25900 nM | – | – | – | Non-Toxic | > 10000 nM | > 10000 nM | 5000 nM | Activity (A-431 [9]): Non-Toxic; Activity (NCI-H1975 [10]): inactive
C=CC(=O)N1CCC[C@@H](n2nc(-c3ccccc3)c3c(N)ncnc32)C1 | 70 nM | 21700 nM | 3670 nM | 12700 nM | – | 140 nM | 240 nM | 10 nM | permeability [11]: 59%; remaining at 1 h, 5 µM [12]: 97%; solubility kinetic at 1.5 h, 500 µM [13]: 461 µM (≈ 161 µg/mL); remaining at 1 h, 5 µM [14]: 91%; fraction unbound at 6 h, 5 µM [15]: 0.33; microsomal CLint at 50 min, 3 µM (in vitro [16]): 122 µL/min/mg; microsomal CLint at 50 min, 3 µM (in vitro [17]): 924 µL/min/mg
CCC(=O)N1CCC[C@@H](n2nc(-c3cccc(C(F)(F)F)c3)c3c(N)ncnc32)C1 | – | – | – | – | Non-Toxic | > 10000 nM | > 10000 nM | > 10000 nM | Activity (A-431 [9]): Non-Toxic; Activity (HCC827 [20]): inactive; Activity (NCI-H1975 [10]): inactive
C=CC(=O)N1CCC[C@@H](n2nc(-c3ccc(N(C)C)c4ccccc34)c3c(N)ncnc32)C1 | 2130 nM | – | 2670 nM | 24500 nM | Non-Toxic | 810 nM | 210 nM | 270 nM | –
C#Cc1nn([C@@H]2CCCN(C(=O)C=C)C2)c2ncnc(N)c12 | 2050 nM | 28300 nM | 16200 nM | 29600 nM | – | 1500 nM | 690 nM | 960 nM | –
C=CC(=O)N1CCC[C@@H](n2nc(-c3cccc(F)c3)c3c(N)ncnc32)C1 | 70 nM | – | 3370 nM | 11700 nM | Non-Toxic | 130 nM | 230 nM | 10 nM | –
C=CC(=O)N1CCC[C@@H](n2nc(-c3ccc(F)cc3)c3c(N)ncnc32)C1 | – | – | – | – | – | 130 nM | 280 nM | 30 nM | –
CN(C)C/C=C/C(=O)N1CCC[C@@H](n2nc(-c3cccc(C(F)(F)F)c3)c3c(N)ncnc32)C1 | 6390 nM | – | 20600 nM | 13700 nM | Non-Toxic | 7300 nM | 6100 nM | 1000 nM | –
C=CC(=O)N1CCC[C@@H](n2nc(C#CC3CCCC3)c3c(N)ncnc32)C1 | 1150 nM | 27100 nM | 8270 nM | 10900 nM | – | 750 nM | 1400 nM | 60 nM | –
C=CC(=O)N1CCC[C@@H](n2nc(Cc3ccccc3)c3c(N)ncnc32)C1 | 150 nM | – | 690 nM | 19900 nM | Non-Toxic | 20 nM | 10 nM | 3 nM | –
C=CC(=O)N1CCC[C@@H](n2nc(-c3ccc(F)c4ccccc34)c3c(N)ncnc32)C1 | 430 nM | – | 360 nM | 12800 nM | Non-Toxic | – | – | – | –
C=CC(=O)Nc1cccc(Nc2nc(Nc3ccc(N4CCN(C(C)=O)CC4)cc3OC)ncc2C(F)(F)F)c1 [ROCILETINIB] | 45 nM | – | 100 nM | – | – | – | – | – | permeability [11]: 88%; remaining at 1 h, 5 µM [12]: 78%; solubility kinetic at 1.5 h, 500 µM [13]: 10 µM (≈ 5.56 µg/mL); remaining at 1 h, 5 µM [14]: 75%; fraction unbound at 6 h, 5 µM [15]: 0.01; microsomal CLint at 50 min, 3 µM (in vitro [16]): 5.1 µL/min/mg; microsomal CLint at 50 min, 3 µM (in vitro [17]): 81 µL/min/mg; Papp B→A at 2 h, 5 µM [18]: 0.068 ×10⁻⁶ cm/s; Papp A→B at 2 h, 5 µM [19]: 0.05 ×10⁻⁶ cm/s
C=CC(=O)N1CCC[C@@H](n2nc(-c3cccc4ccccc34)c3c(N)ncnc32)C1 | 500 nM | – | 490 nM | 29400 nM | Non-Toxic | 60 nM | 2 nM | – | Activity [21]: Active; permeability [11]: 82%; remaining at 1 h, 5 µM [12]: 100%; solubility kinetic at 1.5 h, 500 µM [13]: 38 µM (≈ 15.1 µg/mL); remaining at 1 h, 5 µM [14]: 90%; fraction unbound at 6 h, 5 µM [15]: 0.15; microsomal CLint at 50 min, 3 µM (in vitro [16]): 770 µL/min/mg; microsomal CLint at 50 min, 3 µM (in vitro [17]): 2770 µL/min/mg
C=CC(=O)N1CCC[C@@H](n2nc(-c3cccc(C(F)(F)F)c3)c3c(N)ncnc32)C1 | 650 nM | 22200 nM | 4160 nM | 16000 nM | – | – | 220 nM | 30 nM | permeability [11]: 76%; remaining at 1 h, 5 µM [12]: 96%; solubility kinetic at 1.5 h, 500 µM [13]: 427 µM (≈ 178 µg/mL); remaining at 1 h, 5 µM [14]: 99%; fraction unbound at 6 h, 5 µM [15]: 0.09; microsomal CLint at 50 min, 3 µM (in vitro [16]): 578 µL/min/mg; microsomal CLint at 50 min, 3 µM (in vitro [17]): 2770 µL/min/mg
CCC(=O)N1CCC[C@@H](n2nc(-c3ccccc3)c3c(N)ncnc32)C1 | – | – | – | – | Non-Toxic | 7300 nM | > 10000 nM | 4700 nM | Activity (A-431 [9]): Non-Toxic; Activity (HCC827 [20]): inactive; Activity (NCI-H1975 [10]): inactive
